From patent US5300512A, “Benzimidazole compounds” (G. D. Searle & Co., priority 1992, dated 1994)

Assays:
[1] = system: 5-HT3; assay: Bezold-Jarisch reflex: reduction of 5-HT-induced bradycardia in anesthetized mice; assay type: in vivo; details: i.p., 30 min before 5-HT 0.25 mg/kg i.v.; >50% reduction of bradycardia considered significant
Method: (§1) 5-HT4 agonist activity was determined in the in vitro rat tunica muscularis mucosae (TMM) assay. (Baxter et al., Naunyn Schmied Arch. Pharmacol, 1991, 343, 439). The 5-HT4 agonist or antagonist and/or 5-HT3 antagonist activity of the compounds of the invention can be determined by these assays described herein, without undue experimentation.
The compound to be evaluated was administered i.p. (mg/kg) to a group of 3 mice. […] This method has been described by Saxena, P. R. and Lawang, A., Arch. Int. Pharmacodyn., 277: 235-252, 1985.

[2] = target: T1, 5-HT3 receptor (Rattus norvegicus, UniProt P35563); assay: [3H]-GR65630 radioligand binding to 5-HT3 receptor, rat brain cortex membranes
T1 construct: Brain cortices were obtained from male rats and a membrane fraction prepared by standard techniques; from tissue; host or cells: rat brain cortex, membrane fraction
T1 sequence (P35563 24-483): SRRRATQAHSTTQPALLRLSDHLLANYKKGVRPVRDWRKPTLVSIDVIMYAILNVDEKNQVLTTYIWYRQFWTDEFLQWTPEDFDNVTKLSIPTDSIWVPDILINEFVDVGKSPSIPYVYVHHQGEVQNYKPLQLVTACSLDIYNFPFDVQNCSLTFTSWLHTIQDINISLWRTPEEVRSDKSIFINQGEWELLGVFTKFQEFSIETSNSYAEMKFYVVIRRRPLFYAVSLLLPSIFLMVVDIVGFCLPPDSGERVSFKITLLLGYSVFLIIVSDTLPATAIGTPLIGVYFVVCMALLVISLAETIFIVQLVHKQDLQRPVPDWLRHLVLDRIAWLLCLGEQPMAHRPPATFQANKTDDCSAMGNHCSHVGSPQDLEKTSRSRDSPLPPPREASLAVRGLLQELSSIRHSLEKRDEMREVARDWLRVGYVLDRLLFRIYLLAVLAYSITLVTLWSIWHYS
Method: as §1
GR65630 binds to the 5-HT3 receptor. Brain cortices were obtained from male rats and a membrane fraction prepared by standard techniques. 0.04 mg of membrane prep was incubated with 0.2 nM […] for 60 minutes at 22° C. […] Membranes were filtered and washed 3 times and the filters were counted to determine [3H]-GR65630 specifically bound. (Kilpatrick G. J., Jones B. J. and Tyers M. B. Identification and distribution of 5-HT3 receptors in rat brain using radioligand binding. Nature, 330: 746-748, 1987).

[3] = target: T2, 5-HT4 receptor (Rattus norvegicus, UniProt Q62758); assay: In vitro functional assay for serotonin 5-HT4 agonism: rat TMM (relaxation of carbachol-contracted tunica muscularis mucosae); assay type: biochemical; details: rat esophagus, carbachol (3 μM) contracted, 37° C, tissues from 5 rats
T2 construct: The inner tunica muscularis mucosa was mounted under 0.2-0.3 g of tension in a tissue bath; from tissue; host or cells: rat intrathoracic esophagus, tunica muscularis mucosae
T2 sequence (Q62758 whole entry): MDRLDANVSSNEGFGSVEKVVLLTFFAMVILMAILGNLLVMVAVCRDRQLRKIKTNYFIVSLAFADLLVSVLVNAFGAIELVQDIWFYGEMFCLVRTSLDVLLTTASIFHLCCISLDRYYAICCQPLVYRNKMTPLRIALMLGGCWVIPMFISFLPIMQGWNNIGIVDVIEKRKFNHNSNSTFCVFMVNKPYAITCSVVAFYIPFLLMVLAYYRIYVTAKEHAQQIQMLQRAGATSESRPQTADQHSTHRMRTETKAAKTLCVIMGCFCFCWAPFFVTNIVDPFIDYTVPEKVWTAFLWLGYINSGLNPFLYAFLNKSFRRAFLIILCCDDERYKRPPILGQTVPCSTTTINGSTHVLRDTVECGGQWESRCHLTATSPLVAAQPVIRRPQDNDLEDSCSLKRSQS
Method: as §1
Agonist activity was determined utilizing relaxation of carbachol-contracted rat tunica muscularis mucosae. One 2 cm segment of intrathoracic esophagus proximal to the diaphragm was removed from male rats, weighing approximately 300 gm, and the outer muscle layers removed. The inner tunica muscularis mucosa was mounted under 0.2-0.3 g of tension in a tissue bath containing oxygenated Tyrode's solution at 37° C. […] Following a 30 min equilibrium period, tissues were isometrically contracted with carbachol (3 μM) to obtain a tonic contraction. A stable plateau was obtained within 20 min when test compound was added cumulatively to relax the muscle strip. EC50 values were obtained for each agonist in tissues from 5 rats.

Structure (SMILES)	Minimum Effective Dose (MED) [1] [mg/kg]	Hill Coefficient ([2]; [3H]-GR65630 bound (0.2 nM))	other results
CN1C2CCCC1CC(NC(=O)c1nn(C)c3ccccc13)C2 (stereo not shown) [BRL-43694]	0.05	–	–
CC(C)n1c(=O)n(C(=O)NCC23CCN(CC2)CC3)c2ccccc21 [Example 10, N-(1-azabicyclo[2.2.2]octan-4-ylmethyl)-2,3-dihydro-3-(1-methylethyl)-2-oxo-1H-benzimidazole-1-carboxamide]	0.03	–	IC50 ([2]; [3H]-GR65630 bound (0.2 nM)): 8.6 nM; Ki ([2]; [3H]-GR65630 bound (0.2 nM)): 4.3 nM; EC50 [3]: 125 nM
Cc1[nH]cnc1CCC(=O)c1cn(C)c2ccccc12 [GR65630]	–	–	% Specific Binding ([2]; [3H]-GR65630, non-specific binding with 1 uM ICS 205-930): 70%
CN1C2CCC1CC(OC(=O)c1c[nH]c3ccccc13)C2 (stereo not shown) [ICS 205-930]	–	1.0	–
c1ccc2nc(N3CCNCC3)ccc2c1 [Quipazine]	–	0.86	–
COc1ccc2[nH]cc(C3=CCNCC3)c2c1 [RU24969]	–	1.0	–
COc1cc(N)c(Cl)cc1C(=O)NC1CN2CCC1CC2 (stereo not shown) [Zacopride]	–	0.86	–
O=c1[nH]c2ccccc2n1CCCN1CCC(n2c(=O)[nH]c3cc(Cl)ccc32)CC1 [domperidone]	> 10	–	–
CCN(CC)CCNC(=O)c1cc(Cl)c(N)cc1OC [metoclopramide]	5	–	–
CN1[C@@H]2C[C@@H](OC(=O)[C@H](CO)c3ccccc3)C[C@H]1[C@@H]1O[C@@H]12 [scopolamine]	2.5	–	–
